Experiment [1] addresses Histone deacetylase (Homo sapiens) (UniProt Q13547+O15379+Q9UBN7+Q92769+Q9UQL6+Q8WUI4+Q9BY41+Q96DB2+P56524+Q9UKV0+Q969S8). The experiment is described as follows: Inhibition of HDAC in human HeLa nuclear extract at 1 uM using Boc-Lys(acetyl)-AMC as fluorogenic substrate measured after 1 hr by flourescence plate reader method relative to control. The class given is subcellular. To be noted: Nucleus.

The subject of the next experiment is A549. The experiment is described as follows: cells. The class given is functional. To be noted: Homo sapiens, time 48 hrs.
The target in experiment [2] is T1, Class 1 histone deacetylase (Homo sapiens) (UniProt Q13547+O15379+Q92769+Q9BY41). The experiment is described as follows: Inhibition of class 1 HDAC in human MCF7 cells assessed as increase in histone H4 acetylation at 10 uM measured after 8 hrs by Western blot analysis. It counts as cell-based. Background: A western blot detects proteins with antibodies after separation by electrophoresis.

A further experiment deals with Histone deacetylase 2 (Homo sapiens, UniProt Q92769). The experiment can be described thus: Inhibition of full length human HDAC2 using Boc-Lys(acetyl)-AMC as fluorogenic substrate measured after 1 hr by flourescence plate reader method.
For experiment [3], the target named is T1, Class 1 histone deacetylase (Homo sapiens). The experiment is described as follows: Inhibition of class 1 HDAC in human K562 cells assessed as increase in histone H4 acetylation at 10 uM measured after 8 hrs by Western blot analysis. It counts as cell-based.
In experiment [4] the target is T2, Protein deacetylase HDAC6 (Homo sapiens) (UniProt Q9UBN7).
T2 sequence (whole entry): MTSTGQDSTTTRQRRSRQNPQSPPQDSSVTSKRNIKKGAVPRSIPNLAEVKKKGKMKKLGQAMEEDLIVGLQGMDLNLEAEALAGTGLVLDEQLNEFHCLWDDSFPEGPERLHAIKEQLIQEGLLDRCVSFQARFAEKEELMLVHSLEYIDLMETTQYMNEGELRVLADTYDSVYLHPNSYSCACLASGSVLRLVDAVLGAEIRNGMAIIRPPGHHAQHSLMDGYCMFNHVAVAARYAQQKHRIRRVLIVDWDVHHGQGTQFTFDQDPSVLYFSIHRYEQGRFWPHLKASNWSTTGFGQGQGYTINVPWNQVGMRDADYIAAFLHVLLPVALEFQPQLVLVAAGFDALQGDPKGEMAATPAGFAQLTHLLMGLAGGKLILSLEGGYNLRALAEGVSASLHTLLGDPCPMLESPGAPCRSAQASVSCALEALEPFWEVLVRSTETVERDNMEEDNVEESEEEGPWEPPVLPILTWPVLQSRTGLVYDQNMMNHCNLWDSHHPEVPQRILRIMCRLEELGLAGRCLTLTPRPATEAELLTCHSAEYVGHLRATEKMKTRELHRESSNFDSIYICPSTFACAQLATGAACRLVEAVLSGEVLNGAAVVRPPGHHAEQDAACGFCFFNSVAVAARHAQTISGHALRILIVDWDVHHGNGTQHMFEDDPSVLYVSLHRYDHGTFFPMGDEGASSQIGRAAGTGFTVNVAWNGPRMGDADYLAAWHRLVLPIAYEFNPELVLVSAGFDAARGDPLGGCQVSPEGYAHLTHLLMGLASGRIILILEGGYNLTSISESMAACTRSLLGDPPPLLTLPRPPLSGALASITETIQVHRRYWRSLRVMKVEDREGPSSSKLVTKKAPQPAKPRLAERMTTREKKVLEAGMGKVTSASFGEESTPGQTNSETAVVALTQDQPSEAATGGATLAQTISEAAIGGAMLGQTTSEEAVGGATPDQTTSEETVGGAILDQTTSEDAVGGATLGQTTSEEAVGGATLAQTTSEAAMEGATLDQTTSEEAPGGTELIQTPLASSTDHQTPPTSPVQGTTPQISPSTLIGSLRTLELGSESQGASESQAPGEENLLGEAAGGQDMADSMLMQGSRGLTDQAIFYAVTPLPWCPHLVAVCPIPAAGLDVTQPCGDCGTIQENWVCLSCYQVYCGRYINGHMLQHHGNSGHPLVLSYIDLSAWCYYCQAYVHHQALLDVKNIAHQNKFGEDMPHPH
The experiment can be described thus: Inhibition of HDAC6 in human K562 cells assessed as increase in alpha tubulin acetylation at 10 uM measured after 8 hrs by Western blot analysis. It counts as cell-based.

In another experiment the target is T3, Histone deacetylase 8 (Homo sapiens, UniProt Q9BY41).
T3 sequence (Q9BY41 whole entry): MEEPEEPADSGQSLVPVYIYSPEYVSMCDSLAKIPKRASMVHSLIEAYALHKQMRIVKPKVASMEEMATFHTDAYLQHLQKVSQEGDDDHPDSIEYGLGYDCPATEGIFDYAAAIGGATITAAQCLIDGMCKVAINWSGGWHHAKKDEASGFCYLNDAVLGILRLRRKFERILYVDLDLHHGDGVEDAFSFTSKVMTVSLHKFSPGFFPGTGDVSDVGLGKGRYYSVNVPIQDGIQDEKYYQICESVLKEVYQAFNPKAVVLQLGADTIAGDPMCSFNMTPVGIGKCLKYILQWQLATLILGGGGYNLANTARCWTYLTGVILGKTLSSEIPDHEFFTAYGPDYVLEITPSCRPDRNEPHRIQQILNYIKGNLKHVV
The experiment is described as follows: Inhibition of full length human C-terminal His-tagged HDAC8 expressed in baculovirus infected Sf9 insect cells using Boc-Lys(acetyl)-AMC as fluorogenic substrate measured after 1 hr by flourescence plate reader method.

In experiment [5] the target is T1, Class 1 histone deacetylase (Homo sapiens). The experiment is described as follows: Inhibition of class 1 HDAC in human MCF7 cells assessed as increase in histone H3 acetylation at 10 uM measured after 8 hrs by Western blot analysis. The class given is cell-based.
The target of experiment [6] is T2, Protein deacetylase HDAC6 (Homo sapiens). The experiment is described as follows: Inhibition of HDAC6 in human MCF7 cells assessed as increase in alpha tubulin acetylation at 10 uM measured after 8 hrs by Western blot analysis. The class given is cell-based.
For a further experiment, the target named is Histone deacetylase 5 (Homo sapiens, UniProt Q9UQL6). The experiment is described as follows: Inhibition of human HDAC5 using Boc-Lys(acetyl)-AMC as fluorogenic substrate measured after 1 hr by flourescence plate reader method.
The subject of a further experiment is HeLa. The experiment can be described thus: cells. The class given is functional. Conditions: Homo sapiens, time 48 hrs.
For the next experiment, the target named is Histone deacetylase 9 (Homo sapiens, UniProt Q9UKV0). The experiment is described as follows: Inhibition of human C-terminal His-tagged HDAC9 (604 to 1066 residues) expressed in baculovirus infected Sf9 insect cells using Boc-Lys(acetyl)-AMC as fluorogenic substrate measured after 1 hr by flourescence plate reader method.

Molecules are shown by their SMILES. Active and inactive are the calls of the source. The calls are words filed in the database; no cut-off is given here. Some results are limits rather than exact numbers.

The values below come from ChEMBL document CHEMBL5055644, “Cysteine derivatives as acetyl lysine mimics to inhibit zinc-dependent histone deacetylases for treating cancer” (Eur J Med Chem, 2021).

Usually inhibition stands for the percentage by which the read-out fell short of the control. For orientation: GI50 means the concentration at which growth is held to half of that of the control. Low values mean greater sensitivity of the cells, high ones lower sensitivity of the cells. The term IC50 denotes the concentration needed to halve the response being measured.

Sequence of Histone deacetylase 2 (Q92769 whole entry): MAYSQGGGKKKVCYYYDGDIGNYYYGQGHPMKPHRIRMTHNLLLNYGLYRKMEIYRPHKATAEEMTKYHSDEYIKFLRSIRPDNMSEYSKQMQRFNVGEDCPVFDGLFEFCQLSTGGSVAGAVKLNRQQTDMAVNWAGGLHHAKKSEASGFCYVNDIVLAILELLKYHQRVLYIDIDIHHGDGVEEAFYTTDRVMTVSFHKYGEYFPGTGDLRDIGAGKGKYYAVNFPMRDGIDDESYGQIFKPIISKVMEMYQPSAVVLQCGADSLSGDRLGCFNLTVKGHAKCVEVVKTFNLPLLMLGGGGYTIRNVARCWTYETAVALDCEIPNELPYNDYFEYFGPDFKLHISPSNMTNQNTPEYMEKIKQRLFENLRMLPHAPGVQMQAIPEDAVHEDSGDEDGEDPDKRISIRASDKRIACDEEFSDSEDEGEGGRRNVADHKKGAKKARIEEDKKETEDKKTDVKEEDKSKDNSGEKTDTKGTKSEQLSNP
Sequence of Histone deacetylase 9 (Q9UKV0 whole entry, the tested form may be a part): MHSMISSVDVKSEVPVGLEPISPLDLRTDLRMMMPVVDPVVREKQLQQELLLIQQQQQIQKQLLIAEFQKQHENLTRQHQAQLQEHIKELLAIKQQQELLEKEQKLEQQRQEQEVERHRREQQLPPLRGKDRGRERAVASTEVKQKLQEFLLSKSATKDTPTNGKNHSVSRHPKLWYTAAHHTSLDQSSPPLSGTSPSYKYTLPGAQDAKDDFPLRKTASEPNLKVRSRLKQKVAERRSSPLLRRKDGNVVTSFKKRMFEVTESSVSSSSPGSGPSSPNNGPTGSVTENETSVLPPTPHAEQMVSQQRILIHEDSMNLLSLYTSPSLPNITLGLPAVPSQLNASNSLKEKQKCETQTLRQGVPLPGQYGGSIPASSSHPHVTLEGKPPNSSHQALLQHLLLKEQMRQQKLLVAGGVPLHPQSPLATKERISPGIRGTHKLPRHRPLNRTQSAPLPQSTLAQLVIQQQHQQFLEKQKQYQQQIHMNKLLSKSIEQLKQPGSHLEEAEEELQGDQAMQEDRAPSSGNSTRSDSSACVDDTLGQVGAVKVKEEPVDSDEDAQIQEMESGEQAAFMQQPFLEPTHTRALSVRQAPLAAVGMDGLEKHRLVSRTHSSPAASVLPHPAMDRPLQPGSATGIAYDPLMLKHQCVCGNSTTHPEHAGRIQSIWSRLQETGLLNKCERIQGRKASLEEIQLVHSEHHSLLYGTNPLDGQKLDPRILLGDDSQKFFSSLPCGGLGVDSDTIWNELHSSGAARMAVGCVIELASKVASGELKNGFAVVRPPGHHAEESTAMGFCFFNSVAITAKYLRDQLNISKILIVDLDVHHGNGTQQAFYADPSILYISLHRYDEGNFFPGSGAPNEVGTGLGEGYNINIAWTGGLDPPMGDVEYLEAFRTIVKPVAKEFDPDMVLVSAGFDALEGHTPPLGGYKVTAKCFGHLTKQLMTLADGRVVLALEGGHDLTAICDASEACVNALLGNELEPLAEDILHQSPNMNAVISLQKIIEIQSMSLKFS
Sequence of Histone deacetylase 5 (Q9UQL6 whole entry): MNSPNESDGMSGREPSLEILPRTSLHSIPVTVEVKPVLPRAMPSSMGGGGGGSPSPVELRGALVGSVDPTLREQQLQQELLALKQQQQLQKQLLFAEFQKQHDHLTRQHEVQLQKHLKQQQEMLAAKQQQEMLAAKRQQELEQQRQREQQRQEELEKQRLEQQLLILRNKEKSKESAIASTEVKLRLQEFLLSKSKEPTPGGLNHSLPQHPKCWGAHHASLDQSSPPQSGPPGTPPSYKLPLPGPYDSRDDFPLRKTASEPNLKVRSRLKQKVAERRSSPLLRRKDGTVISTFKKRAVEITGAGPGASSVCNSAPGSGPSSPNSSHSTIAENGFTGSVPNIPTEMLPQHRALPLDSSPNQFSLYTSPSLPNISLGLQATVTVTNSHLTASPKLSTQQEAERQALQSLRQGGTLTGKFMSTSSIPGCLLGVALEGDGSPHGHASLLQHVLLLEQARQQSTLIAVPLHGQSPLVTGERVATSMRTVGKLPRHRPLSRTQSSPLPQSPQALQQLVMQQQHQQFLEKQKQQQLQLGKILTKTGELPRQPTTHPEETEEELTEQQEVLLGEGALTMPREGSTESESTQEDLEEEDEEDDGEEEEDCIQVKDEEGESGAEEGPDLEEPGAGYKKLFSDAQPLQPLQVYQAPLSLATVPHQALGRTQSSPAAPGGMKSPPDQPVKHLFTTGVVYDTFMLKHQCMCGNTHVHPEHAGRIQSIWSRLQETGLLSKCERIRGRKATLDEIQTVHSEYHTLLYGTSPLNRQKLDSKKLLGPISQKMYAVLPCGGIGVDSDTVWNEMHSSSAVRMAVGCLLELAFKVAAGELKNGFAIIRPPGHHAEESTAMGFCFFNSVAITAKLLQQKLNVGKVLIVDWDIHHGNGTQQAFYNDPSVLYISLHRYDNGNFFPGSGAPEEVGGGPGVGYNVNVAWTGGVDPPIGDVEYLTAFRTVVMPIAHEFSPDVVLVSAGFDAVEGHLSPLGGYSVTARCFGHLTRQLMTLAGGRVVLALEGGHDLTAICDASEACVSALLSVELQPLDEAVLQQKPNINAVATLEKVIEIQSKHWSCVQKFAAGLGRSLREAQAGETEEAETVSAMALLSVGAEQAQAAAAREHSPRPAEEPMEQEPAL
T1 sequence (O15379 whole entry, looked up, one chain of several): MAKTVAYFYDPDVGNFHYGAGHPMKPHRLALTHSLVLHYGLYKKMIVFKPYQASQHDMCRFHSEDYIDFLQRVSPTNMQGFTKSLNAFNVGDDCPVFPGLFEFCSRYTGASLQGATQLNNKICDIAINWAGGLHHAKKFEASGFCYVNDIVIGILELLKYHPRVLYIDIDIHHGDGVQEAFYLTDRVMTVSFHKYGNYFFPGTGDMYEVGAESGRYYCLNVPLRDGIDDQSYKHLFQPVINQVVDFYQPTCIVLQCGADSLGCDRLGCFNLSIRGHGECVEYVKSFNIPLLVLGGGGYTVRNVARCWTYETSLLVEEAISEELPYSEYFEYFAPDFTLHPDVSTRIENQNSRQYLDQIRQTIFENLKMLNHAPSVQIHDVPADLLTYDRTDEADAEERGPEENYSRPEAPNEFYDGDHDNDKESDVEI
T1 sequence (Q13547 whole entry, looked up, one chain of several): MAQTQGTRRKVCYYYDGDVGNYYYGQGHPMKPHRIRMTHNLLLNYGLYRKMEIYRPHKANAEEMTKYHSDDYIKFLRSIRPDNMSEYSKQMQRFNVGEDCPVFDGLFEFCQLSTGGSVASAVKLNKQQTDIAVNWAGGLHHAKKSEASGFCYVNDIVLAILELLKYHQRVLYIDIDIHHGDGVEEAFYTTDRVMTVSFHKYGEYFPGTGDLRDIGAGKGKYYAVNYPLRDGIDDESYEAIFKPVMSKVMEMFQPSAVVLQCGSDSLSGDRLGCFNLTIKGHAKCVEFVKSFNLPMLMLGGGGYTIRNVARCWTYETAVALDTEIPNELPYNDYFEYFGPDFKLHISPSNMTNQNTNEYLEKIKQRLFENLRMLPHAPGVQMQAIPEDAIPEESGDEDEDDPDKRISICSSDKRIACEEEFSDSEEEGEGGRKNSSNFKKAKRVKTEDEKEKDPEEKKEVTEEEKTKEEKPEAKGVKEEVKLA
T1 sequence (Q92769 whole entry, looked up, one chain of several): as the sequence (Q92769 whole entry) above
Description for A549: Antiproliferative activity against human A549 cells assessed as inhibition of cell proliferation incubated for 48 hrs by CCK8 assay
Description for HeLa: Antiproliferative activity against human HeLa cells assessed as inhibition of cell proliferation incubated for 48 hrs by CCK8 assay

As to `O=C(CCCSC[C@H](NC(=O)OCc1ccccc1)C(=O)Nc1cccc2ccccc12)NO`, the inhibition in experiment [1] came to 83%. Also, the GI50 was found to be 5.3 µM in the experiment on A549 and 4.3 µM with HeLa. The inhibition entry in experiment [2], in experiment [3], in experiment [4], in experiment [5] and in [6] was “Active” in each case. The IC50 at Histone deacetylase 2, against Histone deacetylase 8, against Histone deacetylase 5 and at Histone deacetylase 9 was above 0.2 µM throughout.

Take `O=C(CCCSC[C@H](NC(=O)OCc1ccccc1)C(=O)Nc1ccccc1)NO`: the inhibition in experiment [1] amounted to 84%. In addition, the GI50 with A549 is 3.5 µM; in the experiment with HeLa, 3.8 µM. The inhibition result in experiment [2], in experiment [3], in [4], in experiment [5] and in [6] was “Active” each time. For the same compound, the IC50 against Histone deacetylase 2, on Histone deacetylase 8, at Histone deacetylase 5 and against Histone deacetylase 9 was above 0.2 µM each time.

Regarding `O=C(CCCSC[C@H](NC(=O)c1ccccc1)C(=O)Nc1ccccc1)NO`, in experiment [1], the inhibition amounted to 80%. Also, the GI50 was 4.7 µM in the experiment with A549 and 4.1 µM in the experiment with HeLa. Besides, the inhibition result in experiment [2], in experiment [3], in experiment [4], in experiment [5] and in experiment [6] was “Active” each time. Further, the IC50 against Histone deacetylase 2, at Histone deacetylase 8, against Histone deacetylase 5 and at Histone deacetylase 9 was above 0.2 µM each time.
